What is called Km is the substrate concentration at which the rate is half of its maximum.

Each structure is given as a SMILES string.

Assay [1] concerns T1, 6-O-α-rhamnosyl-β-glucosidase (αRβG).
T1 construct: native, purified from culture supernatant of S. strictum; 99 kDa by SDS-PAGE; tryptic peptide TIHETYLAPWYDGVK matched to a 755-residue putative glycoside hydrolase (21-residue signal peptide) of another strain, A. strictum DS1bioAY4a, JGI ID 1029425
Put plainly: hydrolysis; reducing sugars by […],4-dinitrosalicylic acid, Michaelis-Menten fit. In kind it is biochemical, Sarocladium strictum. The conditions noted are these: 50 mM sodium phosphate pH 6.0, 60 °C, 1 h.

Assay [2] shares this test system. Nature of the assay: hydrolysis; product release, Michaelis-Menten fit. In kind it is biochemical, Sarocladium strictum. The conditions noted are these: 50 mM sodium phosphate pH 6.0, 60 °C, 1 h.

In the case of `COc1ccc([C@@H]2CC(=O)c3c(O)cc(O[C@@H]4O[C@H](CO[C@@H]5O[C@@H](C)[C@H](O)[C@@H](O)[C@H]5O)[C@@H](O)[C@H](O)[C@H]4O)cc3O2)cc1O` [hesperidin], the Km in assay [1] was found to be 700 ± 120 µM. In the case of `C[C@@H]1O[C@@H](OC[C@H]2O[C@@H](Oc3c(-c4ccc(O)c(O)c4)oc4cc(O)cc(O)c4c3=O)[C@H](O)[C@@H](O)[C@@H]2O)[C@H](O)[C@H](O)[C@H]1O` [rutin], the Km in assay [2] was found to be 473 ± 4 µM.

Values taken from PMC11077868, “Rutinosides-derived from Sarocladium strictum 6-O-α-rhamnosyl-β-glucosidase show enhanced anti-tumoral activity in pancreatic cancer cells” (Microbial Cell Factories, 2024).
